# Patent US11884956B2, “Methods for detecting mycobacteria with solvatochromic dye conjugates” (priority 2016, dated 2024)
# Tests used:
# [1] = test system: Mycobacterium smegmatis (Msmeg); assay: No-wash imaging of Msmeg by DMN-Tre and 6-FITre; type: cell-based; conditions: 100 μM, 1 hour, imaged without washing; FIG. 9A
# [2] = test system: Corynebacterium glutamicum (Cg); assay: No-wash imaging of Cg by DMN-Tre and 6-FITre; type: cell-based
# [3] = test system: Mycobacterium marinum (Mm); assay: No-wash imaging of M. marinum by DMN-Tre and 6-FITre; type: cell-based; conditions: 100 μM, 6 hours, imaged without washing; FIG. 9A
# Mtb cells = assay: Labeling of drug-treated Mtb; type: cell-based, Mycobacterium tuberculosis; conditions: drug cocktail 3 hours before staining; FIGS. 15C and 15D
# [4] = test system: Mtb cells in TB-positive patient sputum samples; assay: Microscopy analysis of Mtb in sputum samples / Auramine vs DMN-Tre smear test; type: cell-based, Mycobacterium tuberculosis; conditions: for detection of Mtb cells in split sputum samples: DMN-Tre 30 minutes or Auramine O standard kit protocol, FIGS. 17B-D
# Msmeg [5] = assay: Flow cytometry of metabolically labeled Msmeg; type: cell-based, Mycobacterium smegmatis
# [6] = Absorbance and fluorescence measurements of DMN-Tre; type: physicochemical
# Description: One μL of 10 mM DMN-Tre in H2O was added to 1 mL of mixtures of dioxane and water at different ratios. Absorbance spectra were recorded on a Varian Cary 50 UV-Visible spectrophotometer. Fluorescence spectra were recorded on a Photon Technology International Quanta Master 4 L-format scanning spectrofluorometer equipped with an LPS-220B 75-W xenon lamp and power supply, an A-1010B lamp housing with an integrated igniter, a switchable 814 photon counting/analog photomultiplier detection unit, and an MD5020 motor driver. Measurements were made in 1 cm×0.4 cm quartz cuvettes with a total sample volume of 1 mL.
# Msmeg [7] = assay: No-wash labeling of Msmeg over time; type: cell-based, Mycobacterium smegmatis; conditions: FIG. 10
# Description: (§1) Msmeg or Cg cells were grown to an OD600 of 0.5 from a single colony as above. To 200 μL of culture was added 2 μL of 10 mM DMN-Tre in H2O. Aliquots were taken from this culture at the indicated time points, immediately placed under a coverslip, and imaged.
# Cg = assay: No-wash labeling of Cg over time; type: cell-based, Corynebacterium glutamicum; conditions: FIG. 10
# Description: as §1
# Bacillus subtilis (Bs) = assay: Labeling of non-mycomembrane bearing bacteria (Bs); type: cell-based; conditions: 100 μM, 37° C., 2 h; FIG. 11A
# Description: (§2) Lm, Bs, Ec, and Sa were grown from single colonies at 37° C. overnight. The bacteria were diluted to an OD600 of 0.4. To 1 mL aliquots of these bacteria, 10 μL of 10 mM DMN-Tre was added to reach a final concentration of 100 μM. The cells were then incubated at 37° C. for 2 h. Aliquots were taken and the cells were imaged under a coverslip. As controls, cells from the same OD600=0.4 culture, without the addition of DMN-Tre, were also imaged.
# Escherichia coli (Ec) = assay: Labeling of non-mycomembrane bearing bacteria (Ec); type: cell-based; conditions: 100 μM, 37° C., 2 h; FIG. 11A
# Description: as §2
# [8] = test system: Listeria monocytogenes (Lm); assay: Labeling of non-mycomembrane bearing bacteria (Lm); type: cell-based; conditions: 100 μM, 37° C., 2 h; FIG. 11A
# Description: as §2
# [9] = test system: Staphylococcus aureus (Sa); assay: Labeling of non-mycomembrane bearing bacteria (Sa); type: cell-based; conditions: 100 μM, 37° C., 2 h; FIG. 11A
# Description: as §2
# Msmeg expressing mCherry = assay: Selective labeling of Msmeg in the presence of other bacterial species; type: cell-based, Mycobacterium smegmatis; conditions: 1:10 mycobacteria/other bacteria (Bs, Ec, Lm, Sa), Hoechst dye, one hour, no wash; FIG. 11B
# Description: Bacteria (Lm, Bs, Ec, and Sa) were grown overnight with shaking in media as noted above. The bacteria were diluted to OD600=0.5, then 500 μL of each culture were mixed together to create 2 mL of mixed bacteria. One mL of Msmeg expressing mCherry was grown from a single colony overnight to OD600 of 0.5. Both cultures were pelleted by centrifugation (3 min, 3,300×g) and resuspended in an identical volume of LB medium. To 540 μL of mix, 60 μL of Msmeg was added. Lastly, this final mixture of bacteria containing Msmeg and the four other non-mycomembrane bearing bacterial species was split into two 300 μL aliquots. To each group, 0.3 μL of 2 mg/mL Hoechst DNA stain (Thermo Fisher Scientific, 62249) was added to stain all the bacteria. To one of the two aliquots, 3 μL of 10 mM DMN-Tre were added, while no DMN-Tre was added to the other portion. The two aliquots were incubated with shaking at 37° C. for 1 h before a sample was taken out and imaged without washing.
# M. smegmatis = assay: Trehalose competition of DMN-Tre labeling in M. smegmatis; type: cell-based, Mycobacterium smegmatis; conditions: 1 hour, FIG. 12D
# Description: Then, the bacteria were divided into 100 μL aliquots. To these aliquots was added 1 μL of 10 mM DMN-Tre and 1 μL of 0, 10 or 100 mM trehalose in water.
# [10] = test system: Msmeg trehalose transporter mutants; type: cell-based, Mycobacterium smegmatis; conditions: panel of trehalose transporter mutants
# Msmeg deficient in Ag85A = assay: DMN-Tre labeling of Msmeg deficient in Ag85A; type: cell-based, Mycobacterium smegmatis; conditions: FIG. 12F
# Mtb (H37Rv) = assay: Axenic MTB culture time-course experiment; type: cell-based, Mycobacterium tuberculosis
# Stability of DMN-Tre = type: physicochemical; conditions: bench or shipping containers at room temperature; aqueous solution at 37° C.
# heat-killed Msmeg cells = assay: DMN-Tre labeling of heat-killed Msmeg; conditions: FIGS. 13A and 13B
# ΔkatG mutant of Msmeg = type: cell-based, Mycobacterium smegmatis; conditions: FIG. 14C
# wild-type Msmeg = assay: DMN-Tre labeling after isoniazid treatment, wild-type; type: cell-based, Mycobacterium smegmatis; conditions: FIG. 14C
# [11] = 100 μM, 2 hours, imaged without washing, FIG. 9A
# [12] = 100 μM, exponential growth phase, first time point
smiles,measurement,setting,value
"O=C(O)c1cc(NC(=S)NC[C@H]2O[C@H](O[C@H]3O[C@H](CO)[C@@H](O)[C@H](O)[C@H]3O)[C@H](O)[C@@H](O)[C@@H]2O)ccc1-c1c2ccc(=O)cc-2oc2cc(O)ccc12 [6-FITre, 6-fluorescein-trehalose, reference compound]",background fluorescence of free probe in surrounding solution,[1],obscured by fluorescence of the probe in the surrounding solution
same,background fluorescence of free probe in surrounding solution,[2]; [11],obscured by fluorescence of the probe in the surrounding solution
same,background fluorescence of free probe in surrounding solution,[3],obscured by fluorescence of the probe in the surrounding solution
"CN(C)c1ccc(C(=N)c2ccc(N(C)C)cc2)cc1.Cl [Auramine O, reference compound]",labeling after prior drug cocktail treatment,Mtb cells,unaffected
same,detection of Mtb cells in split sputum samples,[4],detected
"COC1OC(CN2C(=O)c3cccc4c(N(C)C)ccc(c34)C2=O)C(O)C(O)C1O (stereo not drawn) [DMN-Glc, DMN-glucose]",labeling of Msmeg,Msmeg [5]; FIG. 12C,did not label Msmeg
"CN(C)c1ccc2c3c(cccc13)C(=O)N(C[C@H]1O[C@H](O[C@H]3O[C@H](CO)[C@@H](O)[C@H](O)[C@H]3O)[C@H](O)[C@@H](O)[C@@H]1O)C2=O [DMN-Tre, 4-N,N-dimethylamino-1,8-naphthalimide-conjugated trehalose]",enhancement in fluorescence intensity when dissolved in organic solvent versus water,[6],~700 fold
same,background fluorescence of free probe in surrounding solution,[1],no discernible background fluorescence
same,"fluorescence labeling, no-wash imaging",[1],Bright fluorescence labeling
same,background fluorescence of free probe in surrounding solution,[2]; [11],no discernible background fluorescence
same,"fluorescence labeling, no-wash imaging",[2]; [11],Bright fluorescence labeling
same,fluorescence labeling in the selectivity experiment,"[2]; same experiment as the non-mycobacterial strains, FIG. 11A",labeled brightly
same,background fluorescence of free probe in surrounding solution,[3],no discernible background fluorescence
same,"fluorescence labeling, no-wash imaging",[3],Bright fluorescence labeling
same,time point at which labeling was already visible,Msmeg [7]; [12],≤ 5 min
same,time by which cells were uniformly labeled,Msmeg [7],≤ 1 h
same,labeling pattern at earliest time point,Msmeg [7]; earliest time point,fluorescence only at the polar regions
same,time point at which labeling was already visible,Cg; [12],≤ 3 min
same,labeling pattern at earliest time point,Cg; earliest time point,even cell surface labeling
same,fluorescence labeling without washing,Bacillus subtilis (Bs),none of the non-mycobacterial strains show any detectable fluorescence labeling
same,fluorescence labeling without washing,Escherichia coli (Ec),none of the non-mycobacterial strains show any detectable fluorescence labeling
same,fluorescence labeling without washing,[8],none of the non-mycobacterial strains show any detectable fluorescence labeling
same,fluorescence labeling without washing,[9],none of the non-mycobacterial strains show any detectable fluorescence labeling
same,labeling in mixed bacterial culture,Msmeg expressing mCherry,"Bright, specific, DMN-Tre labeling of only Msmeg cells"
same,fluorescence signal of labeled cells by filter set,"Msmeg [5]; 100 μM DMN-Tre, 1 h, excited at wavelengths closer to 400 nm (405 nm vs 488 nm excitation), FIG. 9B",higher fluorescence signal over control samples
same,time to significant fluorescence over background,"Msmeg [5]; flow cytometry, FIG. 12A",≤ 20 min
same,cells labeled,"Msmeg [5]; within 30 minutes, flow cytometry, FIG. 12B",> 70%
same,DMN-Tre labeling in the presence of excess trehalose,M. smegmatis,reduced
same,DMN-Tre incorporation versus wild-type,[10],comparable to wild-type
same,DMN-Tre labeling versus wild-type,Msmeg deficient in Ag85A,reduced labeling compared to wild-type
same,labeling of liquid cultures,Mtb (H37Rv); FIG. 15A,visibly labeled
same,cells labeled,"Mtb (H37Rv); liquid cultures, within 30 minutes, FIG. 15B",> 65%
same,labeling over time,"Mtb (H37Rv); overnight (˜16 h), FIG. 15B",continued to intensify overnight
same,labeling after prior drug cocktail treatment,Mtb cells,inhibited
same,time to detection of mycobacteria in TB patient sputum samples,[4],under an hour
same,fluorescent Mtb cells in sputum samples,"[4]; 16 treatment-naïve TB-positive patients, 2-hour incubation, FIGS. 17A and D",readily visible in all samples
same,detection of Mtb cells in split sputum samples,[4],detected
same,Mtb cells detected in sputum compared with Auramine O,"[4]; visibly stained cells over 8 fields of view per sample, 16 sputum samples, FIG. 17C",performed similarly to Auramine O
same,stability,Stability of DMN-Tre,"very stable on the bench or in shipping containers for weeks at room temperature, and even in aqueous solution at 37 °C"
same,labeling after heat killing,heat-killed Msmeg cells,abrogated
NNC(=O)c1ccncc1 [isoniazid],effect of isoniazid treatment on DMN-Tre labeling,ΔkatG mutant of Msmeg,unaffected
same,effect of isoniazid treatment on DMN-Tre labeling,wild-type Msmeg,"not wild-type Msmeg, was unaffected"
